# Where “and” joins values, the source holds several entries; their conditions need not be identical. Equal values may be shown once. Read-outs that look alike come from different tables or passages of the source. Marks after values point to notes of the source that are not given here.
# Columns and labels:
# [1] = tested on: Escherichia coli (ATCC28922); test: Microdilution MIC assay (CLSI-based), E. coli; assay type: cell-based; settings: 20 hours incubation at 35-37° C., MHB; for MIC: Escherichia coli, ATCC28922, 20 h, read-out: Minimum inhibitory concentration E. coli ATCC28922
# Outline: (§1)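 Broth microdilution per modified CLSI guidelines in Mueller Hinton broth, 200 μL, inoculum ca. 5×10^5 CFU/mL; compounds tested as salts, twofold dilutions from 0.2 mg/mL, in triplicate. MIC determined from OD at 620 nm after incubation.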
# [2] = tested on: Escherichia coli (E. coli) persister cells; test: Anti-persister activity test, persister cells; assay type: cell-based; settings: for anti-persister activity (in words): E. coli persister cells, Table 8 conditions; for viability at 250 µM: read-out: Persister cell survival rate 96 h, concentration used 250 μM, 4 hours treatment; for viability at 125 µM: read-out: Persister cell survival rate 96 h, concentration used 125 μM, 4 hours treatment; for Persister cell survival rate 96 h: concentration used 250 μM, 4 hours treatment
# Experimental: (§2) Anti-persister activity test: Escherichia coli (E. coli) persister cells were generated and isolated as described by MARQUES, C. N. H. et al. (Applied and Environmental Microbiology 2014, Vol. 80, No. 22, pp. 6976-6991). E. coli persister cells were compared to E. coli non-persister cells. 1 mL persister or non-persister bacteria culture was added in a 1.5 mL microtube with each of the compounds to be tested or ciprofloxacin as a […], and incubated at 37° C. with 160 rpm shaking for 4 hours. After 4 hours treatment with the compounds, the microtubes were centrifuged at 3,500g for 5 minutes and the pellets were resuspended in 1 mL of fresh drug free RM broth (10 g/L M9 salt, 2% casamino acids, 1 mM MgCl2, 1% glycerol). Resuspended bacteria were then plated over LB agar plates and incubated at 37° C. Bacterial colonies were enumerated after 24, 48 and 96 hours to estimate the survival rate.
# [3] = tested on: Pseudomonas aeruginosa (ATCC27853); test: Microdilution MIC assay (CLSI-based), P. aeruginosa; assay type: cell-based; settings: 20 hours incubation at 35-37° C., MHB; for MIC: Pseudomonas aeruginosa, ATCC27853, 20 h, read-out: Minimum inhibitory concentration P. aeruginosa ATCC27853
# Outline: as §1
# [4] = tested on: E. coli non-persister cells; test: Anti-persister activity test, non-persister cells; assay type: cell-based, Escherichia coli; settings: for viability at 250 µM: read-out: Non-persister cell survival rate 96 h, concentration used 250 μM, 4 hours treatment; for activity on non-persister cells (in words): E. coli non-persister cells, Table 8 conditions; for viability at 125 µM: read-out: Non-persister cell survival rate 96 h, concentration used 125 μM, 4 hours treatment; for Non-persister cell survival rate 96 h: concentration used 250 μM, 4 hours treatment
# Experimental: as §2
# [5] = tested on: Enterococcus faecalis (ATCC29212); test: Microdilution MIC assay (CLSI-based), E. faecalis; assay type: cell-based; settings: 20 hours incubation at 35-37° C., MHB; for MIC: Enterococcus faecalis, ATCC29212, 20 h, read-out: Minimum inhibitory concentration E. faecalis ATCC29212
# Outline: as §1
# [6] = tested on: Staphylococcus aureus (ATCC25923); test: Microdilution MIC assay (CLSI-based), S. aureus; assay type: cell-based; settings: 20 hours incubation at 35-37° C., MHB; for MIC: Staphylococcus aureus, ATCC25923, 20 h, read-out: Minimum inhibitory concentration S. aureus ATCC25923
# Outline: as §1
# CHO-K1 cells = test: WST1 cytotoxicity test; assay type: cell-based, Chinese hamster
# Outline: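 CHO-K1 cells pre-cultured 24 h, then exposed 24 h at 37 °C to increasing compound concentrations. Viability read as WST-1 formazan absorbance at 450 nm after 20 min; dose-response fitted by nonlinear regression.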
# [7] = Cricetulus griseus, CHO-K1, 24 h, WST1, 24 hours at 37° C., read-out: IC50 CHO
# [8] = Cricetulus griseus, CHO-K1, WST1, as printed in Table 8, read-out: Toxicity IC50 CHO
compound,measurement,setting,value
"COC(=O)[C@@H](NC(=O)CC[C@@H](C)[C@H]1CCC2C3C(CC[C@@]21C)[C@@]1(C)CC[C@H](NCCCNCCNCCCN)C[C@H]1C[C@H]3O)C(C)C (stereo partly drawn) [Compound S013, methyl ((4R)-4-((3S,5S,7R,10S,13R,17R)-3-((3-((2-((3-aminopropyl)amino)ethyl)amino)propyl)amino)-7-hydroxy-10,13-dimethylhexadecahydro-1H-cyclopenta[a]phenanthren-17-yl)pentanoyl)-L-valinate]",MIC,[1],6.25 µM and 4 µg/mL
same,anti-persister activity (in words),[2],both anti-persister and anti-bacterial activities
same,viability at 250 µM,"[2]; Escherichia coli, 4 h",0%
same,MIC,[3],25 µM and 16 µg/mL
same,viability at 250 µM,"[4]; Escherichia coli, 4 h",0%
same,MIC,[5],12.5 µM and 8 µg/mL
same,MIC,[6],6.25 µM and 4 µg/mL
same,toxicity results (in words),CHO-K1 cells,good toxicity results
same,IC50,CHO-K1 cells; [7],96.3 µM and 63.7 µg/mL
same,IC50,CHO-K1 cells; [8],96.3 µM
"COC(=O)[C@H](Cc1ccc(O)cc1)NC(=O)CC[C@@H](C)[C@H]1CCC2C3C(CC[C@@]21C)[C@@]1(C)CC[C@H](NCCCNCCNCCCN)C[C@H]1C[C@H]3O (stereo partly drawn) [Compound S042, methyl ((4R)-4-((3S,5S,7R,10S,13R,17R)-3-((3-((2-((3-aminopropyl)amino)ethyl)amino)propyl)amino)-7-hydroxy-10,13-dimethylhexadecahydro-1H-cyclopenta[a]phenanthren-17-yl)pentanoyl)-L-tyrosinate]",MIC,[1],12.5 µM and 8 µg/mL
same,anti-persister activity (in words),[2],not as good on persister cells
same,viability at 125 µM,"[2]; Escherichia coli, 4 h",0.1%
same,MIC,[3],25 µM and 16 µg/mL
same,activity on non-persister cells (in words),[4],good activity on non-persister cells
same,viability at 125 µM,"[4]; Escherichia coli, 4 h",0%
same,MIC,[5],25 µM and 16 µg/mL
same,MIC,[6],6.25 µM and 4 µg/mL
same,toxicity results (in words),CHO-K1 cells,good toxicity results
same,IC50,CHO-K1 cells; [7],51.4 µM and 37.3 µg/mL
same,IC50,CHO-K1 cells; [8],51.4 µM
"COC(=O)[C@H](NC(=O)CC[C@@H](C)[C@H]1CCC2C3C(CC[C@@]21C)[C@@]1(C)CC[C@H](NCCCNCCCN)C[C@H]1C[C@H]3O)C(C)C (stereo partly drawn) [Compound S019, methyl ((4R)-4-((3S,5S,7R,10S,13R,17R)-3-((3-((3-aminopropyl)amino)propyl)amino)-7-hydroxy-10,13-dimethylhexadecahydro-1H-cyclopenta[a]phenanthren-17-yl)pentanoyl)-D-valinate]",Minimum inhibitory concentration E. coli ATCC28922,[1],12.5* μM and 8* μg/mL
same,anti-persister activity (in words),[2],very potent anti-persister activity
same,Persister cell survival rate 96 h,[2],0.0%
same,Minimum inhibitory concentration P. aeruginosa ATCC27853,[3],12.5* μM and 8* μg/mL
same,Non-persister cell survival rate 96 h,[4],4.0%
same,Minimum inhibitory concentration E. faecalis ATCC29212,[5],25* μM and 16* μg/mL
same,Minimum inhibitory concentration S. aureus ATCC25923,[6],6.25* μM and 4* μg/mL
same,IC50,CHO-K1 cells; [8],97.1 µM
same,IC50 CHO,"CHO-K1 cells; WST1, 24 hours at 37° C.",60.09 µg/mL
"CC[C@H](C)[C@H](NC(=O)CC[C@@H](C)[C@H]1CC[C@H]2[C@@H]3[C@H](O)C[C@@H]4C[C@@H](NCCCNCCNCCCN)CC[C@]4(C)[C@H]3CC[C@]12C)C(=O)OC [Compound S041, methyl (2S,3S)-2-((4R)-4-((3S,5S,7R,10S,13R,17R)-3-((3-((2-((3-aminopropyl)amino)ethyl)amino)propyl)amino)-7-hydroxy-10,13-dimethylhexadecahydro-1H-cyclopenta[a]phenanthren-17-yl)pentanamido)-3-methylpentanoate]",MIC,[1],12.5 µM and 8 µg/mL
same,anti-persister activity (in words),[2],not as good on persister cells
same,viability at 125 µM,"[2]; Escherichia coli, 4 h",0.1%
same,MIC,[3],12.5 µM and 8 µg/mL
same,activity on non-persister cells (in words),[4],good activity on non-persister cells
same,viability at 125 µM,"[4]; Escherichia coli, 4 h",0%
same,MIC,[5],12.5 µM and 8 µg/mL
same,MIC,[6],12.5 µM and 8 µg/mL
same,IC50,CHO-K1 cells; [7],9.8 µM and 6.63 µg/mL
same,IC50,CHO-K1 cells; [8],9.8 µM
"COC(=O)[C@H](NC(=O)CC[C@@H](C)[C@H]1CCC2C3C(CC[C@@]21C)[C@@]1(C)CC[C@H](NCCCNCCCN)C[C@H]1C[C@H]3O)C(C)C (stereo partly drawn) [Compound S017, methyl ((4R)-4-((3S,5S,7R,10S,13R,17R)-3-((3-((3-aminopropyl)amino)propyl)amino)-7-hydroxy-10,13-dimethylhexadecahydro-1H-cyclopenta[a]phenanthren-17-yl)pentanoyl)-D-valinate]",Minimum inhibitory concentration E. coli ATCC28922,[1],12.5* μM and 8* μg/mL
same,anti-persister activity (in words),[2],not as good on persister cells
same,Persister cell survival rate 96 h,[2],0.6%
same,Minimum inhibitory concentration P. aeruginosa ATCC27853,[3],50* μM and 32* μg/mL
same,activity on non-persister cells (in words),[4],good activity on non-persister cells
same,Non-persister cell survival rate 96 h,[4],0.0%
same,Minimum inhibitory concentration E. faecalis ATCC29212,[5],25* μM and 16* μg/mL
same,Minimum inhibitory concentration S. aureus ATCC25923,[6],12.5* μM and 8* μg/mL
same,IC50 CHO,"CHO-K1 cells; WST1, 24 hours at 37° C.",33.23 µg/mL
same,IC50,"CHO-K1 cells; WST1, 24 hours at 37° C., read-out: IC50 CHO",53.7 µM
same,IC50,"CHO-K1 cells; WST1, Table 8, read-out: Toxicity IC50 CHO",53.7 µM
"COC(=O)[C@@H](Cc1ccccc1)NC(=O)CC[C@@H](C)[C@H]1CCC2C3C(CC[C@@]21C)[C@@]1(C)CC[C@H](NCCNCCNCCN)C[C@H]1C[C@H]3O (stereo partly drawn) [Compound S010, methyl ((4R)-4-((3S,5S,7R,10S,13R,17R)-3-((2-((2-((2-aminoethyl)amino)ethyl)amino)ethyl)amino)-7-hydroxy-10,13-dimethylhexadecahydro-1H-cyclopenta[a]phenanthren-17-yl)pentanoyl)-D-phenylalaninate]",MIC,[1],50 µM and 32 µg/mL
same,anti-persister activity (in words),[2],very potent anti-persister activity
same,viability at 250 µM,"[2]; Escherichia coli, 4 h",0.8%
same,MIC,[3],50 µM and 32 µg/mL
same,viability at 250 µM,"[4]; Escherichia coli, 4 h",4.2%
same,MIC,[5],12.5 µM and 8 µg/mL
same,MIC,[6],12.5 µM and 8 µg/mL
same,toxicity results (in words),CHO-K1 cells,good toxicity results
same,IC50,CHO-K1 cells; [7],114 µM and 77.4 µg/mL
same,IC50,CHO-K1 cells; [8],114 µM
"COC(=O)[C@H](NC(=O)CC[C@@H](C)[C@H]1CCC2C3CC[C@@H]4C[C@@H](NCCCNCCCCNCCCN)CC[C@]4(C)C3C[C@H](O)[C@@]21C)C(C)C (stereo partly drawn) [Compound S052, methyl ((4R)-4-((3S,5R,10S,12S,13R,17R)-3-((3-((4-((3-aminopropyl)amino)butyl)amino)propyl)amino)-12-hydroxy-10,13-dimethylhexadecahydro-1H-cyclopenta[a]phenanthren-17-yl)pentanoyl)-D-valinate]",MIC,[1],12.5 µM and 8 µg/mL
same,anti-persister activity (in words),[2],both anti-persister and anti-bacterial activities
same,viability at 62.5 µM,"[2]; Escherichia coli, 4 h, read-out: Persister cell survival rate 96 h, concentration used 62.5 μM, 4 hours treatment",0%
same,MIC,[3],12.5 µM and 8 µg/mL
same,viability at 62.5 µM,"[4]; Escherichia coli, 4 h, read-out: Non-persister cell survival rate 96 h, concentration used 62.5 μM, 4 hours treatment",0%
same,MIC,[5],25 µM and 16 µg/mL
same,MIC,[6],3.12 µM and 2 µg/mL
same,toxicity results (in words),CHO-K1 cells,good toxicity results
same,IC50,CHO-K1 cells; [7],50 µM and 34 µg/mL
same,IC50,CHO-K1 cells; [8],50 µM
"COC(=O)[C@H]1CCCN1C(=O)CC[C@@H](C)[C@H]1CCC2C3C(CC[C@@]21C)[C@@]1(C)CC[C@H](NCCCNCCNCCCN)C[C@H]1C[C@H]3O (stereo partly drawn) [Compound S046, methyl ((4R)-4-((3S,5S,7R,10S,13R,17R)-3-((3-((2-((3-aminopropyl)amino)ethyl)amino)propyl)amino)-7-hydroxy-10,13-dimethylhexadecahydro-1H-cyclopenta[a]phenanthren-17-yl)pentanoyl)-D-prolinate]",MIC,[1],12.5 µM and 8 µg/mL
same,anti-persister activity (in words),[2],very potent anti-persister activity
same,viability at 125 µM,"[2]; Escherichia coli, 4 h",0%
same,MIC,[3],12.5 µM and 8 µg/mL
same,viability at 125 µM,"[4]; Escherichia coli, 4 h",0.3%
same,MIC,[5],6.25 µM and 4 µg/mL
same,MIC,[6],12.5 µM and 8 µg/mL
same,IC50,CHO-K1 cells; [7],9.53 µM and 6.29 µg/mL
same,IC50,CHO-K1 cells; [8],9.53 µM

# — US20260250312A1, “ANTIBACTERIAL COMPOUNDS ELIMINATING DORMANT BACTERIAL CELLS” (UNIVERSITÉ D'AIX-MARSEILLE, priority 2022, published 2026)
